In PubChem BioAssay AID1963832 (Molecular Pharmacology Branch, DTP, NCI, 2024):

Test system: 885724-159-R-J1-PDC complex spheroid viability
Assay: Anticancer human tumor 885724-159-R-J1-PDC patient-derived pancreatic adenocarcinoma cell line growth inhibition [POLQ]
Settings: for IC50: curve of first compound; for viability, T/C: stronger effect = lower value
Procedure: Multicellular complex tumor spheroid response to Polymerase (POL) inhibitors (novobiocin, ART-558, RP6685) in combination with a variety of drugs and investigational agents in selected tumor cell lines
The POL inhibitors (novobiocin, ART-558, and RP6685) were evaluated both individually and in combination with standard of care and investigational anticancer small molecules within a complex spheroid model of solid tumors. . Complex spheroids include a stromal component modeled by human endothelial cells (HUVEC) and fibroblasts modeled by human mesenchymal stem cells (MSCs). The concentration ranges selected for each drug and investigational agent were based upon clinically achievable concentrations if the clinical Cmax of the agent was known.
Compounds. The drugs and investigational agents: novobiocin (NSC847541), ART-558 (NSC835418), RP-6685 (NSC848927), peposertib (NSC802822), ceralasertib (NSC780249), elimusertib (NSC800525), camonsertib (NSC841442), AZD-1390 (NSC803789), olaparib (NSC753686), talazoparib (NSC767125), rucaparib (NSC756644), sotorasib (NSC818433), MRTX-1133 (NSC836407), SN-38 (NSC673596), topotecan (NSC609699), epotoside (NSC141540), doxorubicin (NSC123127), gemcitabine (NSC613327), 5-fluorouracil (NSC19893), paclitaxel (NSC125973), vemurafenib (NSC761431), MSA-2 (NSC828583), SN-011 (NSC837082), adavosertib (NSC754352), prexasertib (NSC758257), carboplatin (NSC241240) and oxaliplatin (NSC266046), were obtained from the National Cancer Institute (NCI) Developmental Therapeutics Program Chemical Repository (21). The FDA-approved anticancer drug set is available from the Developmental Therapeutics Program at https://dtp.cancer.gov/organization/dscb/obtaining/. […] The stock solutions were prepared in dimethyl sulfoxide (DMSO, Sigma-Aldrich, St. Louis, MO, cat. D2650), except for the platinum compounds which were prepared in saline (Quality Biological, Gaithersburg, MD, cat. 114-055-101), at 800-fold the tested concentration and stored at -70 degrees C prior to their use. All drugs and investigational agents were tested over a range starting from a high concentration at or near the clinical Cmax and decreasing in half-log increments. If the clinical Cmax for an agent had not been determined, the highest concentration tested was 10 microM, except for SN-38, which was tested at a high concentration of 1 microM.
Cell Culture. All cells were maintained in an incubator at 37 degrees C and 5% CO2 with 95% humidity. The PDC lines were cultured according to standard operating procedures established by the NCI PDMR (https://pdmr.cancer.gov). Table 3 of the manuscript, lists the cell lines along with the number of the three cell types plated to form the mct-spheroids and media for tumor cell growth. After thawing, all PDC lines, except 997537-175-T-J1-PDC and 415267-285-R-J2-PDC, were cultured in Matrigel-coated flasks prepared with a working solution of 1X Ham's F-12 nutrient mix, without supplementation (Thermo Fisher Scientific, cat. 11765054), 100 U/mL penicillin-streptomycin (Thermo Fisher Scientific, cat. 15140122), and 2.5% Matrigel (Corning Inc., Corning, NY, cat. 354248) for the first three passages. The two PDC lines 997537-175-T-J1-PDC and 415267-285-R-J2-PDC were cultured on uncoated flasks. The 857933-349-R-J2-PDC line was cultured in 6C/Colon 1B media containing advanced DMEM/F-12 (Thermo Fisher Scientific, cat. 12634028), 10 mM HEPES (Thermo Fisher Scientific, cat. 15630080), 1X GlutaMAX supplement (Thermo Fisher Scientific, cat. 35050061), 0.1 mg/mL primocin (InvivoGen, San Diego, CA, cat. ant-pm-2), 10% defined fetal bovine serum, heat inactivated (HyClone Laboratories Inc., Logan, UT, cat. SH30070.03HI), 50% L-WRN conditioned media (ATCC, cat. CRL-3276), 1.25 mM N-Acetyl-L-cysteine (Sigma-Aldrich, cat. A9165), 10 mM nicotinamide (Sigma-Aldrich, cat. N0636), 1X B-27 supplement (Thermo Fisher Scientific, cat. 17504044), 1X N-2 supplement (Thermo Fisher Scientific, cat. […]

[1] = second compound 0.0316 µM, first compound 0.0316 µM
[2] = second compound 0.0316 µM, first compound 0.1 µM
[3] = second compound 0.0316 µM, first compound 0.316 µM
[4] = second compound 0.0316 µM, first compound 1 µM
[5] = second compound 0.0316 µM, first compound 3.16 µM
[6] = second compound 0.0316 µM, first compound 10 µM
[7] = second compound 0.1 µM, first compound 0.0316 µM
[8] = second compound 0.1 µM, first compound 0.1 µM
[9] = second compound 0.1 µM, first compound 0.316 µM
[10] = second compound 0.1 µM, first compound 1 µM
[11] = second compound 0.1 µM, first compound 3.16 µM
[12] = second compound 0.1 µM, first compound 10 µM
[13] = second compound 0.316 µM, first compound 0.0316 µM
[14] = second compound 0.316 µM, first compound 0.1 µM
[15] = second compound 0.316 µM, first compound 0.316 µM
[16] = second compound 0.316 µM, first compound 1 µM
[17] = second compound 0.316 µM, first compound 3.16 µM
[18] = second compound 0.316 µM, first compound 10 µM
[19] = second compound 1 µM, first compound 0.0316 µM
[20] = second compound 1 µM, first compound 0.1 µM
[21] = second compound 1 µM, first compound 0.316 µM
[22] = second compound 1 µM, first compound 1 µM
[23] = second compound 1 µM, first compound 3.16 µM
[24] = second compound 1 µM, first compound 10 µM
[25] = second compound 3.16 µM, first compound 0.0316 µM
[26] = second compound 3.16 µM, first compound 0.1 µM
[27] = second compound 3.16 µM, first compound 0.316 µM
[28] = second compound 3.16 µM, first compound 1 µM
[29] = second compound 3.16 µM, first compound 3.16 µM
[30] = second compound 3.16 µM, first compound 10 µM
[31] = second compound 10 µM, first compound 0.0316 µM
[32] = second compound 10 µM, first compound 0.1 µM
[33] = second compound 10 µM, first compound 0.316 µM
[34] = second compound 10 µM, first compound 1 µM
[35] = second compound 10 µM, first compound 3.16 µM
[36] = second compound 10 µM, first compound 10 µM
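Also: spheroids exposed to compounds for 7 days.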

CCc1cc2c(N3CCc4c(cc(Cn5ccnc5)cc4-c4cn(C)nc4C(F)(F)F)C3=O)cc(C)nc2c(OC)n1 + Cc1cccc(N(C)C(=O)C2C(O)CCN2c2nc(C)cc(C(F)(F)F)c2C#N)c1
IC50 (second compound 0.0316 µM): > 10 µM
IC50 (second compound 0.1 µM): > 10 µM
IC50 (second compound 0.316 µM): > 10 µM
IC50 (second compound 1 µM): > 10 µM
IC50 (second compound 3.16 µM): > 10 µM
IC50 (second compound 10 µM): > 10 µM
viability, T/C [1]: 86.5%
viability, T/C [2]: 82%
viability, T/C [3]: 84.8%
viability, T/C [4]: 75.2%
viability, T/C [5]: 83.1%
viability, T/C [6]: 70.1%
viability, T/C [7]: 85.9%
viability, T/C [8]: 86.2%
viability, T/C [9]: 84.6%
viability, T/C [10]: 81.7%
viability, T/C [11]: 78.5%
viability, T/C [12]: 68.1%
viability, T/C [13]: 89.1%
viability, T/C [14]: 83.5%
viability, T/C [15]: 84.3%
viability, T/C [16]: 83.9%
viability, T/C [17]: 77.4%
viability, T/C [18]: 68.7%
viability, T/C [19]: 93.5%
viability, T/C [20]: 92.1%
viability, T/C [21]: 86%
viability, T/C [22]: 79.2%
viability, T/C [23]: 76.1%
viability, T/C [24]: 68%
viability, T/C [25]: 93.2%
viability, T/C [26]: 84.9%
viability, T/C [27]: 88.2%
viability, T/C [28]: 84.5%
viability, T/C [29]: 72.9%
viability, T/C [30]: 75.4%
viability, T/C [31]: 83.9%
viability, T/C [32]: 91%
viability, T/C [33]: 87.5%
viability, T/C [34]: 81.6%
viability, T/C [35]: 75.8%
viability, T/C [36]: 71%

COc1ccc([C@@H](O)c2cc(-c3ncnc4cc(N5CCOCC5)ccc34)c(F)cc2Cl)nn1 + Cc1cccc(N(C)C(=O)C2C(O)CCN2c2nc(C)cc(C(F)(F)F)c2C#N)c1
IC50 (second compound 0.0316 µM): 4.63 µM
IC50 (second compound 0.1 µM): 4.02 µM
IC50 (second compound 0.316 µM): 4.68 µM
IC50 (second compound 1 µM): 3.96 µM
IC50 (second compound 3.16 µM): 4.44 µM
IC50 (second compound 10 µM): 4.6 µM
viability, T/C [1]: 112%
viability, T/C [2]: 90.2%
viability, T/C [3]: 88.6%
viability, T/C [4]: 70.1%
viability, T/C [5]: 60.5%
viability, T/C [6]: 35.6%
viability, T/C [7]: 93.7%
viability, T/C [8]: 91.6%
viability, T/C [9]: 81.5%
viability, T/C [10]: 64.7%
viability, T/C [11]: 56.7%
viability, T/C [12]: 35.2%
viability, T/C [13]: 104%
viability, T/C [14]: 84.8%
viability, T/C [15]: 81.1%
viability, T/C [16]: 81.9%
viability, T/C [17]: 57.2%
viability, T/C [18]: 33.7%
viability, T/C [19]: 103%
viability, T/C [20]: 93.2%
viability, T/C [21]: 89%
viability, T/C [22]: 68%
viability, T/C [23]: 55.3%
viability, T/C [24]: 34.5%
viability, T/C [25]: 100%
viability, T/C [26]: 92.5%
viability, T/C [27]: 85.1%
viability, T/C [28]: 78.6%
viability, T/C [29]: 55.2%
viability, T/C [30]: 33.4%
viability, T/C [31]: 101%
viability, T/C [32]: 90.3%
viability, T/C [33]: 85.1%
viability, T/C [34]: 77%
viability, T/C [35]: 55.9%
viability, T/C [36]: 34.9%
